Assay [1] in a line: binding assay: biotinylated synthetic peptide on streptavidin plate, titrated with biotinylated glycopeptide antibiotic. The protocol:
A typical binding assay for glycopeptide antibiotic was performed according to the following procedure. Briefly, synthetic peptides comprising an amino acid sequence to be characterized for binding were biotinylated to facilitate immobilization on streptavidin-coated 96-well plates. The microtiter plates were coated with streptavidin by adding 50 μl of a 10 μg/ml streptavidin solution in 0.1M NaHCO3, and incubating the plates for at least 3 hours. The plate wells were blocked by adding 150 μl of a 1% BSA solution in 0.1 NaHCO3 with incubation for at least 2 hours, and the plates were stored at 4° C. until needed. Before use, the streptavidin plates were washed extensively in buffer-T. Added per well was peptide (100 μl 0.1 μM peptide in buffer-T), and then incubated for 30 minutes at room temperature with shaking. 200 μl of 0.5 mM biotin in buffer-T was added to block the remaining streptavidin sites, and plates were incubated for 15 minutes at room temperature. Plates were then washed with buffer-T to remove the excess biotin and peptide. Serial dilutions of biotinylated glycopeptide antibiotic in buffer-T were added (100 μl) to each well, representing a range of concentrations between 100 pM and 100 μM. Plates were incubated for 30 minutes at room temperature with shaking prior to washing several times with buffer-T. Glycopeptide antibiotic was then detected by adding 100 μl of a diluted streptavidin-alkaline phosphatase conjugate to each well and incubated at room temperature for 30 minutes. Excess conjugate was removed by repeated washes with buffer-T, and the amount of alkaline phosphatase remaining in the well was detected using a pNPP (para-nitrophenylphosphate) colorimetric enzymatic assay. The relative amount of glycopeptide antibiotic captured by the peptides was determined by measuring the absorbance at 405 nm of the colored product of the alkaline phosphatase reaction. The EC50 was determined for each peptide relative to the binding affinity for the glycopeptide antibiotic used in the assay, as shown in Table 1 (with vancomycin as a representative glycopeptide antibiotic).
(§1) A typical binding assay for glycopeptide antibiotic was performed according to the following procedure. The concentrations of the alkaline-phosphatase linked variant peptides were normalized to equal levels based on the alkaline-phosphatase activity as determined in a kinetic assay with the alkaline-phosphatase specific chromogenic substrate p-nitrophenyl phosphate (p-NPP). A streptavidin coated microtiter plate was coated with biotinylated vancomycin. Serial dilutions of normalized alkaline-phosphatase linked peptides were allowed to bind to the immobilized vancomycin and detected by addition of the alkaline-phosphatase specific chromogenic substrate p-NPP. Relative affinity for peptide binding to the immobilized vancomycin was determined by measuring the absorbance at 405 nm of the colored product of the alkaline phosphatase reaction. […] EC50 values for the synthetic peptides binding to vancomycin were determined as described in Example 1 and are shown in Table 3. Preferred are peptides that bind to glycopeptide antibiotic with binding affinity of EC50 of less than or equal to about 1 μM, and more preferably, in the nanomolar range (e.g., <0.1 μM).

Assay [2] is described as follows: binding of serially diluted alkaline-phosphatase linked peptides to immobilized biotinylated vancomycin. Conditions: absorbance at 405 nm.
Text: From the peptide amino acid sequence […] (SEQ ID NO: 1) additional peptides were designed and expressed in the bacterial expression system described herein to further evaluate structure-function relationships. A truncated peptide comprising the amino acid sequence of SEQ ID NO:9 (STCLIDMYGVCH) was expressed and compared to a peptide comprising SEQ ID NO:1 for binding affinity for glycopeptide antibiotic. Also produced were a dimer of this truncated peptide (SEQ ID NO:10; […]), a D to A substitution (SEQ ID NO:11; STCLIAMYGVCH), a D to E substitution (SEQ ID NO:12; STCLIEMYGVCH), and a G to S substitution (SEQ ID NO:13; STCLIDMYSVCH). Relative binding strengths of these peptides and of other representative peptides to glycopeptide antibiotic were determined by EC50 values for binding to vancomycin or other glycopeptide antibiotic.
as §1

The next assay relates to S. aureus. Put plainly: bacterial growth with loaded titanium beads, optical density at 600 nm. The format is cell-based. Conditions: peptide 10 μM + vancomycin 200 μM, 37° C. for 18 hours. The protocol:
In another experiment, antimicrobial activity of the peptide compositions was measured as follows. Titanium beads were placed into wells of a 96 well plate. To each well was added a 10 μM of peptide composition comprising at least one surface-binding peptide coupled to at least one glycopeptide antibiotic binding peptide and vancomycin at 200 μM. The appropriate negative controls were also included. The plate was incubated for 1 hour at 20° C., and then the wells and beads were washed 4 times with buffer. After washing, the beads were transferred to the well of a plate containing S. aureus in log phase growth and incubated at 37° C. for 18 hours. Bacterial growth was assessed by reading optical density at 600 nm.

Assay [3] relates to Staphylococcus aureus strain MZ100. Briefly: in vitro infection assay on titanium beads, colony counts. The format is cell-based. Conditions: peptide 5 μM + vancomycin 100 μM. The protocol: To illustrate the antibacterial activity of the peptide compositions, an in vitro infection assay was performed. Briefly, a surface material was contacted with one of the peptide compositions such that the peptide binds to the surface material. The peptide composition can have glycopeptide antibiotic already bound thereto at the time of contacting the peptide with the surface material, or the glycopeptide antibiotic can be contacted with the peptide in a step subsequent to binding the peptide composition to the surface material. The surface material was washed to remove unbound glycopeptide antibiotic, and then contacted with bacterial cells (added from a culture in log phase growth) and incubated to promote bacterial growth. The surface material was washed, and any bacterial cells colonizing the surface material removed and plated to assess bacterial growth.
In one example, Staphylococcus aureus strain MZ100 was used as the representative bacterial cells. First, as a representative surface material, titanium beads were sterilized in acetone in a sonication bath, and then air dried in a sterile hood. The beads were individually placed in sterilized microfuge tubes (one bead per tube). […] The next day, the plates were examined for bacterial growth, and the number of bacterial colonies was quantified per plate.

Assay [4] deals with vancomycin. Put plainly: competition on plates: immobilised biotinylated SEQ ID NO: 1 peptide, 20 nM biotinylated vancomycin, Lys-D-Ala-D-Ala titrated.
Assay [5] has as its target vancomycin. Briefly: titanium beads with 10 µM peptide composition and 200 µM vancomycin, washed, vancomycin eluted with HCl and measured by HPLC.
The target in assay [6] is vancomycin. Briefly: plate assay as in Example 1: synthetic peptide on streptavidin, biotinylated vancomycin titrated.
The target in assay [7] is vancomycin. Briefly: plate assay: biotinylated peptide on streptavidin, biotinylated vancomycin titrated, streptavidin-AP detection.
The mark [8] stands for this setting: synthetic peptides binding to vancomycin, read-out: EC50, binding to glycopeptide antibiotic.
[9] abbreviates: synthetic peptides, biotinylated vancomycin, read-out: EC50 (μM) for vancomycin binding.

Where two headings read alike, the source gives them in different places. *1 amine or outer side, *2 acyl side, *3 side chain or, on linkers, in order; H or OH if unused. Bridges are numbered along the chain shown (N, C = ends). Where no end group is shown, it is not given here. [ ]: non-standard residue; d: D form. (miniPEG)2 = linker of two miniPEG units, each HN-CH2CH2-O-CH2CH2-O-CH2-C(=O), O=C(COCCOCCN[*:1])NCCOCCOCC(=O)[*:2]

Usually EC50 stands for the concentration that produces a half-maximal response. For CLFDIFGVCHSFDGAYDS [compound 2], the EC50 in assay [1] (setting [8]) is under 0.1 µM; in assay [1] (setting [9]), 0.06 µM. With 11 (STCLIAMYGVCH) [compound 11], in assay [2], the “glycopeptide antibiotic binding of alkaline-phosphatase linked peptides” value (“glycopeptide antibiotic binding” below) is recorded as “no detectable glycopeptide antibiotic binding”. Still for that read-out and setting: for 13 (STCLIDMYSVCH) [compound 13] the value was “no detectable glycopeptide antibiotic binding”.

Regarding SLIDMYGVCHNFDGAYDS [compound 5], the EC50 in assay [1] (setting [9]) is 10 µM. PCELIDMFGNDHCP [compound 3]: the figures for the EC50 in assay [1] (setting [8]) and in assay [1] (setting [9]) were under 0.1 µM and 0.82 µM, respectively. For “120 (H-SSSCLIDMYGVCHNFDGAYDSSRG[(miniPEG)2]SSHRTNHKKNNPKKKNKTRGSSGK-NH2; disulfide 4-12) [compound 120]”, in the assay on S. aureus, the “inhibition of bacterial growth (optical density at 600 nm)” value (from here on “inhibition of bacterial growth”) is reported as “complete inhibition”. As to NHTISKNHKKKNKNSNKTR [SEQ ID NO: 119], in assay [3] (2 hour incubation), the “# of bacterial colonies” value was found to be 0. “131 (SSCLIDIYGVCHNFDAY[(miniPEG)2]SSHRTNHKKNNPKKKNKTRGSSGK; disulfide 3-11 (inferred)) [compound 131]”: the “inhibition of bacterial growth” value in the assay on S. aureus was “complete inhibition”.

As for “130 (SSCLIDIYGVCHNFDAY[(miniPEG)2]HKKNNPKKKNKTRGSSK; disulfide 3-11 (inferred)) [compound 130]”, the “inhibition of bacterial growth” value with S. aureus is reported as “complete inhibition”. Broadly, the IC50 is the point on the concentration scale where inhibition reaches its midpoint. Read a high IC50 as lower potency. On to Lys-D-Ala-D-Ala (peptide), for which, in the assay with vancomycin [4], the IC50 stood at 10000 nM and the percent inhibition at 100 µM to 200 µM Lys-D-Ala-D-Ala is 100%. Consider STCLIDMYGVCH [compound 9], for which, in assay [1] (setting [8]), the EC50 is under 1 µM. Further, the “glycopeptide antibiotic binding” value in assay [2] was “displayed glycopeptide antibiotic binding”. In the case of “119 (NHTISKNHKKKNKNSNKTR) [compound 119]”, in assay [3], the “bacterial growth on the plates” value was “completely inhibited”.

In the case of 12 (STCLIEMYGVCH) [compound 12], in assay [2], the “glycopeptide antibiotic binding” value is “no detectable glycopeptide antibiotic binding”. With SCDMLFCENFSGSGNNWFS [compound 4], the concentration giving a half-maximal response (EC50) in assay [1] (setting [9]) was determined as 10 µM. For STCLIDMYGVCHSSCLIDMYGVCH [compound 10], in assay [1] (setting [8]), the EC50 was under 1 µM. Besides, the “glycopeptide antibiotic binding” value in assay [2] is recorded as “displayed glycopeptide antibiotic binding”. As to SSCLIDIYGVCHNFDAY[(miniPEG)2]SSHRTNHKKNNPKKKNKTRGSSGK (disulfide 3-11 (inferred)) [peptide composition SEQ ID NO: 131], the Picomoles vancomycin/cm^2 (picomoles/cm^2) in the assay with vancomycin [5] came to 76.

On to STCLIDMYGVCH (cysteine pairing not given here; also: biotinylated, site not given here) [synthetic peptide comprising SEQ ID NO: 9], for which, in the assay with vancomycin [6], the 50% effective concentration (EC50) was under 1000 nM.

Turning to SSCLIDIYGVCHNFDAY[(miniPEG)2]HKKNNPKKKNKTRGSSK (disulfide 3-11 (inferred)) [peptide composition SEQ ID NO: 130], the Picomoles vancomycin/cm^2 (picomoles/cm^2) with vancomycin [5] turned out to be 83.

On to CLIDMYGVCHNFDGAYDS (cysteine pairing not given here; also: biotinylated, site not given here) [synthetic peptide comprising SEQ ID NO: 1], for which the EC50 is under 100 nM in the assay with vancomycin [6] and 100 nM with vancomycin [7]. As for PCELIDMFGNDHCP (cysteine pairing not given here; also: biotinylated, site not given here) [synthetic peptide comprising SEQ ID NO: 3], the EC50 was under 100 nM in the assay with vancomycin [6] and 820 nM in the assay with vancomycin [7]. On to SCDMLFCENFSGSGNNWFS (cysteine pairing not given here; also: biotinylated, site not given here) [synthetic peptide comprising SEQ ID NO: 4], for which the EC50 with vancomycin [7] worked out at 10000 nM. The molecule STCLIDMYGVCHSSCLIDMYGVCH (cysteine pairing not given here; also: biotinylated, site not given here) [synthetic peptide comprising SEQ ID NO: 10] gave a concentration for a half-maximal effect (EC50) with vancomycin [6] of under 1000 nM. SLIDMYGVCHNFDGAYDS (also: biotinylated, site not given here) [synthetic peptide comprising SEQ ID NO: 5] came in with a concentration giving a half-maximal response (EC50) with vancomycin [7] of 10000 nM.

For CLFDIFGVCHSFDGAYDS (cysteine pairing not given here; also: biotinylated, site not given here) [synthetic peptide comprising SEQ ID NO: 2], the 50% effective concentration (EC50) with vancomycin [6] was under 100 nM; with vancomycin [7], 60 nM.

The values above are taken from patent US20100098737A1, “METHODS AND COMPOSITIONS FOR DELIVERY OF GLYCOPEPTIDE ANTIBIOTICS TO MEDICAL DEVICE SURFACES” (priority 2008, published 2010).
